According to patent US12644045B2, “Fluorescent compounds and application thereof” (The Hong Kong University of Science and Technology, priority 2020, dated 2026):
Values belong to the molecule of their own block, whether it stands above or below them.

Key:
[1] = system: lipid droplets (LDs) in Hela cells; experiment: Co-localization with BODIPY 493/503 in live Hela cells (confocal imaging); assay type: cell-based; settings: 2 μM TBSM 1 h, co-stained with BODIPY 493/503
Procedure: FIG. 19 Confocal fluorescent images of live HeLa cell stained with 2 μM TBSM (1 h) and 1 μg/mL BODIPY (1 h). TBSM: λex=488 nm, λem=550-650 nm; BODIPY: λex=488 nm, λem=490-535 nm. Scale bar=20 μm. The number on the figure is colocalization coefficient.
To confirm the specificity of the TBSM for LDs imaging, the co-localization experiments were then carried out by incubating Hela cells with TBSM and BODIPY 493/503, a commercial dye for LDs.

A549 and Hela cells = experiment: Live cell staining of A549 and Hela cells; assay type: cell-based; settings: 2 μM, 1 h
[2] = system: LDs of liver tissues of mice; experiment: Ex vivo co-staining with BODIPY in high-fat feeding mice liver tissue; settings: TBSM 2 μM 1 h, BODIPY 2 μM 1 h
Procedure: FIG. 20 Co-stained ex vivo confocal one-photon (λex=488 nm) images TBSM (2 μM, 1 h) and BODIPY (2 μM, 1 h) in high-fat feeding mice liver tissue. TBSM: λex=488 nm, λem=550-650 nm; BODIPY: μex=488 nm, λem=490-535 nm. Scale bar: 10 μm. The number on the picture is colocalization coefficient.

[3] = system: LDs in the yolk sac of zebrafish embryos; experiment: In vivo zebrafish embryo imaging; settings: 3-day-old zebrafish embryos, stained for 30 min
Procedure: FIG. 22 In vivo zebrafish embryo imaging stained with TBSM (1 μM, […]), λex=488 nm, λem=550-650 nm. The right is the enlarged part of white frame in the left.
Yolk sac as a neutral lipid and polar phospholipids storage organ provides energy for the upgrowth of zebrafish. Intense red fluorescence signals originating from the yolk sac in 3-day-old zebrafish embryos were observed after stained with TBSM for 30 min (FIG. 22).

[4] = Photophysical properties (PL emission, quantum yield, AIE); assay type: physicochemical; settings: for aggregation induced emission (AIE): THF/water mixtures with increasing water fraction
Procedure: FIG. 16A Normalized absorption and PL spectra of TBSM in THF solution (c=10^−5 M) and FIG. 16B Normalized absorption and PL spectra of TBSM in solid state. λex=460 nm.
FIG. 17A PL spectra of TBSM in water/THF mixtures with different water fractions (fw); FIG. 17B Plots of relative PL intensity (αAIE=I/I0, I0=PL intensity in pure THF at 672 nm) vs fw. c=10 μM, λex=460 nm. Insert: the fluorescence pictures of the mixture with fw=50% and 95%.
FIG. 23A Absorption spectra of TBSMCN in THF (c=10^−5 mol/L) and as film. FIG. 23B PL spectra of TBSMCN in THF (c=10^−5 mol/L) and as film, λex=530 nm.
FIG. 24A PL spectra of TBSMCN in H2O/THF mixtures with different water fractions (fw). Concentration: 10^−5 M; λex=530 nm. FIG. 24B Plots of relative emission intensity (I/I0) versus the composition of the mixture, where I0=PL intensity in pure THF at λem=810 nm.
UV spectrum FIG. 27A and PL spectrum FIG. 27B of TBSMPy in film state. λex=560 nm.
UV spectrum FIG. 28A and PL spectrum FIG. 28B of TBSMDPy in film state. λex=580 nm.
The photophysical properties of TBSM were first examined. […] TBSM gave a much brighter red emission in toluene solution with an emission wavelength at 605 nm and a QY of 67.9%. While in THF solution, the emission wavelength red-shifted to 669 nm with a QY of 4.1%.
We then investigated the luminescence behavior of TBSM in the mixture of THF and water to see whether it is AIE-active. When adding water into the THF solution, the photoluminescence (PL) intensity decreased with the water fraction (fw) in a range of 0-50%. In this case, the TICT effect dominated the photophysical process and reduced the emission intensity. When the fw exceeded 50%, the TBSM molecule began to aggregate and made the local microenvironment less polar. Therefore, the conformation rigidification became dominated and reversed the PL intensity from weak to strong.
To gain an insight to the details of the photophyscial properties of TBSM, we analyzed its crystal structure. TBSM molecules also show bright emission in the solid state since the locked nonplanar conformation can avoid the strong intermolecular π-π interactions. Indeed, no strong intermolecular π-π stacking has been observed in the crystal packing of TBSM. However, multiple intermolecular non-covalent interactions such as S . . . π, C≡N . . . π, C—H . . . N, C—H . . . S, and intermolecular hydrogen bonding interactions were observed which helps lock the solid-state molecular motion.
The photophysical properties of TBSMCN were investigated. […] In the film, the ICT peak further red shifted to 580 nm. […] TBSMCN was also AIE-active, showing increased PL emission intensity in the mixture of THF and water as the water fraction increased (FIG. 24A and FIG. 24B).
The photophysical properties of TBSMPy and TBSMDPy were studied. In the film state, they had absorption peaks around 400 nm and 580 nm. The emission peaks were at 750 nm with high QY of 16.3% and 25.0% for TBSMPy and TBSMDPy, respectively (FIGS. 27 and 28).

- QY ([4]; THF solution): 4.1%
- emission wavelength ([4]; THF solution): 669 nm
- aggregation induced emission (AIE) [4]: exhibits typical AIE property
- emission wavelength ([4]; solid): 670 nm
- quantum yield ([4]; solid): 13%
- QY ([4]; toluene solution): 67.9%
- emission wavelength ([4]; toluene solution): 605 nm
SMILES: N#CC(C#N)=C1Sc2c(F)c(-c3ccc(N(c4ccccc4)c4ccccc4)cc3)c3nsnc3c2S1 [TBSM]
- co-localization coefficient [1]: 0.91
- permeability for living cells (A549 and Hela cells): fast permeability
- co-localization coefficient [2]: 0.97
- specificity toward LDs in vivo [3]: highly specific toward LDs

- QY ([4]; film state): 16.3%
- emission peak ([4]; film state): 750 nm
SMILES: N#CC(C#N)=C1Sc2c(c(-c3ccc(N(c4ccccc4)c4ccccc4)cc3)c3nsnc3c2C#Cc2ccncc2)S1 [TBSMPy]

- aggregation induced emission (AIE) [4]: AIE-active
- QY ([4]; film state): about 10%
SMILES: N#CC(C#N)=C1Sc2c(c(-c3ccc(N(c4ccccc4)c4ccccc4)cc3)c3nsnc3c2C#N)S1 [TBSMCN]

- QY ([4]; film state): 25.0%
- emission peak ([4]; film state): 750 nm
SMILES: N#CC(C#N)=C1Sc2c(c(-c3ccc(N(c4ccccc4)c4ccccc4)cc3)c3nsnc3c2C#Cc2cc(C#Cc3cccnc3)cc(C#Cc3cccnc3)c2)S1 [TBSMDPy]
